From patent US10765114B2, “4-amino-6-(pyridyl and 2-substitutedphenyl)-picolinates and 6-amino-2-(pyridyl and 2-substitutedphenyl)-pyrimidine-4-carboxylates and their use as herbicides” (Dow AgroSciences LLC, priority 2013, dated 2020)

Test system: not given
Assay: not given
Settings: not given

melting point [°C] | SMILES
170 to 171 | COc1nc(Cl)ccc1-c1cc(N)c(Cl)c(C(=O)O)n1 [Compound 57]

Test system: Key Grass and Sedge Weeds as well as Grass Crops
Assay: Post-Emergent Test II (Table 6)
Format: in vivo
Settings: post-emergence, 336 h, CYPSS, 70 g ai/ha, 14 days after application, read-out: Visual Growth Reduction (%) 14 Days After Application CYPSS
In short: (§1)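 Post-emergence greenhouse spray, 1st-2nd true leaf stage; track sprayer, 187 L/ha; acetone/DMSO stock diluted in aqueous acetone/IPA/DMSO with Atplus 411F and Triton X-155; rates 1× to 1/16×; subirrigated; visual injury 0 (none) to 100% (complete kill) at 14 days.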

SMILES | pest or weed control at 70 g/ha [%]
COc1nc(Cl)ccc1-c1cc(N)c(Cl)c(C(=O)O)n1 [Compound 57] | 0 to 29

Same assay, conditions: post-emergence, 336 h, CYPSS, 140 g ai/ha, 14 days after application, read-out: Visual Growth Reduction (%) 14 Days After Application CYPSS

SMILES | pest or weed control at 140 g/ha [%]
COc1nc(Cl)ccc1-c1cc(N)c(Cl)c(C(=O)O)n1 [Compound 57] | 0 to 29

Same assay, conditions: post-emergence, 336 h, DIGSA: crabgrass (Digitaria sanguinalis), 70 g ai/ha, 14 days after application, read-out: Visual Growth Reduction (%) 14 Days After Application DIGSA

SMILES | pest or weed control at 70 g/ha [%]
COc1nc(Cl)ccc1-c1cc(N)c(Cl)c(C(=O)O)n1 [Compound 57] | 0 to 29

Same assay, conditions: post-emergence, 336 h, DIGSA: crabgrass (Digitaria sanguinalis), 140 g ai/ha, 14 days after application, read-out: Visual Growth Reduction (%) 14 Days After Application DIGSA

SMILES | pest or weed control at 140 g/ha [%]
COc1nc(Cl)ccc1-c1cc(N)c(Cl)c(C(=O)O)n1 [Compound 57] | 0 to 29

Same assay, conditions: post-emergence, 336 h, ECHSS, 70 g ai/ha, 14 days after application, read-out: Visual Growth Reduction (%) 14 Days After Application ECHSS

SMILES | pest or weed control at 70 g/ha [%]
COc1nc(Cl)ccc1-c1cc(N)c(Cl)c(C(=O)O)n1 [Compound 57] | 0 to 29

Same assay, conditions: post-emergence, 336 h, ECHSS, 140 g ai/ha, 14 days after application, read-out: Visual Growth Reduction (%) 14 Days After Application ECHSS

SMILES | pest or weed control at 140 g/ha [%]
COc1nc(Cl)ccc1-c1cc(N)c(Cl)c(C(=O)O)n1 [Compound 57] | 0 to 29

Same assay, conditions: post-emergence, 336 h, ORYSS (crop), 70 g ai/ha, 14 days after application, read-out: Visual Growth Reduction (%) 14 Days After Application ORYSS

SMILES | pest or weed control at 70 g/ha [%]
COc1nc(Cl)ccc1-c1cc(N)c(Cl)c(C(=O)O)n1 [Compound 57] | 0 to 29

Same assay, conditions: post-emergence, 336 h, ORYSS (crop), 140 g ai/ha, 14 days after application, read-out: Visual Growth Reduction (%) 14 Days After Application ORYSS

SMILES | pest or weed control at 140 g/ha [%]
COc1nc(Cl)ccc1-c1cc(N)c(Cl)c(C(=O)O)n1 [Compound 57] | 0 to 29

Same assay, conditions: post-emergence, 336 h, SETFA: giant foxtail (Setaria faberi), 70 g ai/ha, 14 days after application, read-out: Visual Growth Reduction (%) 14 Days After Application SETFA

SMILES | pest or weed control at 70 g/ha [%]
COc1nc(Cl)ccc1-c1cc(N)c(Cl)c(C(=O)O)n1 [Compound 57] | 0 to 29

Same assay, conditions: post-emergence, 336 h, SETFA: giant foxtail (Setaria faberi), 140 g ai/ha, 14 days after application, read-out: Visual Growth Reduction (%) 14 Days After Application SETFA

SMILES | pest or weed control at 140 g/ha [%]
COc1nc(Cl)ccc1-c1cc(N)c(Cl)c(C(=O)O)n1 [Compound 57] | 0 to 29

Same assay, conditions: post-emergence, 336 h, SORVU: grain sorghum (Sorghum vulgare), 70 g ai/ha, 14 days after application, read-out: Visual Growth Reduction (%) 14 Days After Application SORVU

SMILES | pest or weed control at 70 g/ha [%]
COc1nc(Cl)ccc1-c1cc(N)c(Cl)c(C(=O)O)n1 [Compound 57] | 0 to 29

Same assay, conditions: post-emergence, 336 h, SORVU: grain sorghum (Sorghum vulgare), 140 g ai/ha, 14 days after application, read-out: Visual Growth Reduction (%) 14 Days After Application SORVU

SMILES | pest or weed control at 140 g/ha [%]
COc1nc(Cl)ccc1-c1cc(N)c(Cl)c(C(=O)O)n1 [Compound 57] | 0 to 29

Same assay, conditions: post-emergence, 336 h, TRZSS (crop), 70 g ai/ha, 14 days after application, read-out: Visual Growth Reduction (%) 14 Days After Application TRZSS

SMILES | pest or weed control at 70 g/ha [%]
COc1nc(Cl)ccc1-c1cc(N)c(Cl)c(C(=O)O)n1 [Compound 57] | 0 to 29

Same assay, conditions: post-emergence, 336 h, TRZSS (crop), 140 g ai/ha, 14 days after application, read-out: Visual Growth Reduction (%) 14 Days After Application TRZSS

SMILES | pest or weed control at 140 g/ha [%]
COc1nc(Cl)ccc1-c1cc(N)c(Cl)c(C(=O)O)n1 [Compound 57] | 0 to 29

Same assay, conditions: post-emergence, 336 h, ZEAMX: maize, corn (Zea mays), 70 g ai/ha, 14 days after application, read-out: Visual Growth Reduction (%) 14 Days After Application ZEAMX

SMILES | pest or weed control at 70 g/ha [%]
COc1nc(Cl)ccc1-c1cc(N)c(Cl)c(C(=O)O)n1 [Compound 57] | 0 to 29

Same assay, conditions: post-emergence, 336 h, ZEAMX: maize, corn (Zea mays), 140 g ai/ha, 14 days after application, read-out: Visual Growth Reduction (%) 14 Days After Application ZEAMX

SMILES | pest or weed control at 140 g/ha [%]
COc1nc(Cl)ccc1-c1cc(N)c(Cl)c(C(=O)O)n1 [Compound 57] | 0 to 29

Test system: Key Broadleaf Weed and Crop Species
Assay: Post-Emergent Test II (Table 5)
Format: in vivo
Settings: Abutilon theophrasti, post-emergence, 336 h, ABUTH: velvetleaf (Abutilon theophrasti), application rate 70 (kg ai/ha; footnote: g ai/ha), read-out: Visual Growth Reduction (%) 14 Days After Application ABUTH
In short: as §1

SMILES | pest or weed control at 70 g/ha [%]
COc1nc(Cl)ccc1-c1cc(N)c(Cl)c(C(=O)O)n1 [Compound 57] | 85 to 94

Same assay, conditions: Abutilon theophrasti, post-emergence, 336 h, ABUTH: velvetleaf (Abutilon theophrasti), application rate 140 (kg ai/ha; footnote: g ai/ha), read-out: Visual Growth Reduction (%) 14 Days After Application ABUTH

SMILES | pest or weed control at 140 g/ha [%]
COc1nc(Cl)ccc1-c1cc(N)c(Cl)c(C(=O)O)n1 [Compound 57] | 85 to 94

Same assay, conditions: Amaranthus retroflexus, post-emergence, 336 h, AMARE: redroot pigweed (Amaranthus retroflexus), application rate 70 (kg ai/ha; footnote: g ai/ha), read-out: Visual Growth Reduction (%) 14 Days After Application AMARE

SMILES | pest or weed control at 70 g/ha [%]
COc1nc(Cl)ccc1-c1cc(N)c(Cl)c(C(=O)O)n1 [Compound 57] | 95 to 100

Same assay, conditions: Amaranthus retroflexus, post-emergence, 336 h, AMARE: redroot pigweed (Amaranthus retroflexus), application rate 140 (kg ai/ha; footnote: g ai/ha), read-out: Visual Growth Reduction (%) 14 Days After Application AMARE

SMILES | pest or weed control at 140 g/ha [%]
COc1nc(Cl)ccc1-c1cc(N)c(Cl)c(C(=O)O)n1 [Compound 57] | 95 to 100

Same assay, conditions: Brassica napus, post-emergence, 336 h, BRSSS: oilseed rape, canola (Brassica napus), application rate 70 (kg ai/ha; footnote: g ai/ha), read-out: Visual Growth Reduction (%) 14 Days After Application BRSSS

SMILES | pest or weed control at 70 g/ha [%]
COc1nc(Cl)ccc1-c1cc(N)c(Cl)c(C(=O)O)n1 [Compound 57] | 75 to 84

Same assay, conditions: Brassica napus, post-emergence, 336 h, BRSSS: oilseed rape, canola (Brassica napus), application rate 140 (kg ai/ha; footnote: g ai/ha), read-out: Visual Growth Reduction (%) 14 Days After Application BRSSS

SMILES | pest or weed control at 140 g/ha [%]
COc1nc(Cl)ccc1-c1cc(N)c(Cl)c(C(=O)O)n1 [Compound 57] | 75 to 84

Same assay, conditions: Chenopodium album, post-emergence, 336 h, CHEAL: lambsquarters (Chenopodium album), application rate 70 (kg ai/ha; footnote: g ai/ha), read-out: Visual Growth Reduction (%) 14 Days After Application CHEAL

SMILES | pest or weed control at 70 g/ha [%]
COc1nc(Cl)ccc1-c1cc(N)c(Cl)c(C(=O)O)n1 [Compound 57] | 85 to 94

Same assay, conditions: Chenopodium album, post-emergence, 336 h, CHEAL: lambsquarters (Chenopodium album), application rate 140 (kg ai/ha; footnote: g ai/ha), read-out: Visual Growth Reduction (%) 14 Days After Application CHEAL

SMILES | pest or weed control at 140 g/ha [%]
COc1nc(Cl)ccc1-c1cc(N)c(Cl)c(C(=O)O)n1 [Compound 57] | 85 to 94

Same assay, conditions: Euphorbia heterophylla, post-emergence, 336 h, EPHHL: wild poinsettia (Euphorbia heterophylla), application rate 70 (kg ai/ha; footnote: g ai/ha), read-out: Visual Growth Reduction (%) 14 Days After Application EPHHL

SMILES | pest or weed control at 70 g/ha [%]
COc1nc(Cl)ccc1-c1cc(N)c(Cl)c(C(=O)O)n1 [Compound 57] | 0 to 29

Same assay, conditions: Euphorbia heterophylla, post-emergence, 336 h, EPHHL: wild poinsettia (Euphorbia heterophylla), application rate 140 (kg ai/ha; footnote: g ai/ha), read-out: Visual Growth Reduction (%) 14 Days After Application EPHHL

SMILES | pest or weed control at 140 g/ha [%]
COc1nc(Cl)ccc1-c1cc(N)c(Cl)c(C(=O)O)n1 [Compound 57] | 0 to 29

Same assay, conditions: Helianthus annuus, post-emergence, 336 h, HELAN: sunflower (Helianthus annuus), application rate 70 (kg ai/ha; footnote: g ai/ha), read-out: Visual Growth Reduction (%) 14 Days After Application HELAN

SMILES | pest or weed control at 70 g/ha [%]
COc1nc(Cl)ccc1-c1cc(N)c(Cl)c(C(=O)O)n1 [Compound 57] | 85 to 94

Same assay, conditions: Helianthus annuus, post-emergence, 336 h, HELAN: sunflower (Helianthus annuus), application rate 140 (kg ai/ha; footnote: g ai/ha), read-out: Visual Growth Reduction (%) 14 Days After Application HELAN

SMILES | pest or weed control at 140 g/ha [%]
COc1nc(Cl)ccc1-c1cc(N)c(Cl)c(C(=O)O)n1 [Compound 57] | 85 to 94

Same assay, conditions: Viola tricolor, post-emergence, 336 h, VIOTR: wild pansy (Viola tricolor), application rate 70 (kg ai/ha; footnote: g ai/ha), read-out: Visual Growth Reduction (%) 14 Days After Application VIOTR

SMILES | pest or weed control at 70 g/ha [%]
COc1nc(Cl)ccc1-c1cc(N)c(Cl)c(C(=O)O)n1 [Compound 57] | 0 to 29

Same assay, conditions: Viola tricolor, post-emergence, 336 h, VIOTR: wild pansy (Viola tricolor), application rate 140 (kg ai/ha; footnote: g ai/ha), read-out: Visual Growth Reduction (%) 14 Days After Application VIOTR

SMILES | pest or weed control at 140 g/ha [%]
COc1nc(Cl)ccc1-c1cc(N)c(Cl)c(C(=O)O)n1 [Compound 57] | 0 to 29
